For one experiment, the system named is S. epidermidis. The experiment can be described thus: Broth microdilution MIC of lecithin/chitosan particle compositions. The format is cell-based. The conditions noted are these: for MIC: Staphylococcus epidermidis. As for the experimental part: (§1) Initially, to determine basic characteristics, each active component was separately mixed, generally under agitated conditions, with water, and each was miscible with water. Each, after being mixed with water, was tested in a broth microdilution assay, against a variety of bacteria using amounts of the each of the lauric acid derivatives, ranging from about 0.0009 wt. % to about 8 wt. %. The bacteria included Escherichia coli, and Staphylococcus aureus (including MRSA strains). The minimum inhibitory concentration (MIC) needed to prevent growth of the target bacteria was evaluated based on a method published by Clinical Laboratory Standards Institute (CLSI), broth microdilution method M-07 (M07). […] Each of the samples containing one of the lauric acid derivatives was compared with a positive control, decanoic acid.
(§2) For TABLES 1 to 3, compositions were generally prepared as described above, and as further outlined in this paragraph. For these examples, the active component, as a lauric acid derivative or lauric acid, was suspended in an organic solvent, chloroform, and then mixed with water, under robust agitation. The amount of water to the amount of chloroform was at least about 2:1, and could be as high as 10:1. Chloroform was then evaporated (e.g., under vacuum using a freeze dryer). After removal of the chloroform, a 2.2% lecithin solution in an acetate buffer (e.g., 98 mM acetic acid and 2 mM sodium acetate) was prepared and added, so the final amount of the active component was about 1 part active component mixture and about 9 parts of the 2.2% lecithin solution. Of course, it is noted that other ranges to achieve final amount of the active component as described above (e.g., active component mixture and lecithin solution) may also be utilized. Cholesterol could also be optionally added. The mixture of lecithin and the active component was mixed and sonicated, and then a solution of about 1.5% chitosan was added. Thereafter, the entirety of the mixture containing the lecithin and the active component was further blended, in which a final ratio was about 1 part active component to about 9 parts of the 2.2% lecithin solution to about 10 parts of the 1.5% chitosan solution. The pH was then varied, to a pH of 5, or a pH of 7, or a pH of 9. In some mixtures having a pH of 7, a chemical agent imparting a positive charge to the chitosan was included in a form of glycol chitosan. In these tests, the chemical agent used was glycol. In these examples, the amount of chemical agent, glycol was about one molecule glycol moiety to one molecule chitosan sacharide unit; higher amounts of glycol moieties are also acceptable, while lower amounts of glycol moieties were often found to decrease overall inhibitory activity associated with a composition when formed and tested in vitro. It is noted that negatively charged chitosan containing particles were prepared. […] After mixing, the mixtures could each be filtered through a […] filter. In some tests, the mixtures were sonicated before filtering. Sonication produced small particles. In some studies, particles were freeze dried as a powder (generally, after mixing, sonicating and filtering).
(§3) The positive controls were prepared and evaluated in a similar manner. All prepared samples were tested using a broth microdilution test.

Experiment [1] has as its system gram-positive organisms, Streptococcus group A and Streptococcus beta-hemolytic non-A, and S. aureus, as well as Candida. The conditions noted are these: background reports; free acid or ester used as such, in vitro/topical; cited from earlier work.
The subject of another experiment is E. coli. The experiment can be described thus: Broth microdilution MIC of lecithin/chitosan particle compositions. The format is cell-based. As for the experimental part: as §1, §2, §3
Setting [2] is: Table 3, lecithin/chitosan particle composition, prep. mixture pH 5 or pH 7, maximum concentration tested 10 mg/ml.
The mark [3] stands for this setting: Table 3, lecithin/chitosan particle composition, prep. mixture pH 5 or pH 7, maximum concentration tested 10 mg/ml, read-out: MIC (mg/ml) S. epidermidis (chitosan prep. mixture at pH 5 or at pH 7).

Like-named read-outs stand apart in the source and are kept apart here.

For the molecule `CCCCCCCCCCCC(=O)OCC(O)CO` (racemic) [1-lauroyl-rac-glycerol], the MIC in the experiment on S. epidermidis (read-out: MIC (mg/ml) S. epidermidis (chitosan prep. mixture at pH 5 or at pH 7)) is 10 mg/mL.

In the case of `CCCCCCCCCC(=O)CC(=O)NC1CCCCC1=O` (stereo not drawn) [3-oxo-N-(2-oxocyclohexyl) dodecanamide], the “MIC (mg/ml) S. epidermidis (chitosan prep. mixture at pH 5 or at pH 7)” value in the experiment on S. epidermidis (setting [2]) is listed as 10 mg/ml. On to `CCCCCCCCCCCC(=O)Oc1ccc([N+](=O)[O-])cc1` [4-nitrophenyl dodecanoate], for which, in the experiment on S. epidermidis (setting [3]), the MIC is 10 mg/mL.

Consider `O=C(O)CCCCCCCCCCCNc1ccc([N+](=O)[O-])c2nonc12` [12-(7-nitrobenzofurazan-4-ylamino) dodecanoic acid], for which the MIC in the experiment on S. epidermidis (setting [3]) worked out at 10 mg/mL. For `CCCCCCCCCCCC(=O)OCc1ccccc1` [benzyl laurate], the MIC in the experiment with S. epidermidis (setting [3]) was 10 mg/mL.

In the case of `CCCCCCCCCCCC(=O)OCCCC` [butyl laurate], the MIC in the experiment with S. epidermidis (setting [3]) turned out to be 10 mg/mL. On to `CCCCCCCCCCCC(=O)OCC` [ethyl laurate], for which the “Inhibitory activity reported in the literature” value (“Inhibitory activity reported” for short) in experiment [1] was “inactive”. `CCCCCCCCCCCC(=O)OCCCCCC` [hexyl laurate]: the MIC in the experiment on S. epidermidis (setting [3]) came out at 10 mg/mL.

As to `CCCCCCCCCCCC(=O)OCCC(C)C` [isoamyl laurate], the MIC in the experiment on S. epidermidis (setting [3]) stood at 10 mg/mL. For the molecule `CCCCCCCCCCCC(=O)OC(C)C` [isopropyl laurate], the MIC with S. epidermidis (setting [3]) was determined as 10 mg/mL. As to `CCCCCCCCCCCC(=O)O` [lauric acid, dodecanoic acid], the “Inhibitory activity reported” value in experiment [1] is “weak inhibitory activity”. For the molecule `CCCCCCCCCCCC(=O)OC` [methyl laurate], in experiment [1], the “Inhibitory activity reported” value is on record as “ineffective”.

Take `CCCCCCCCCCCC(=O)OCC(O)CO` (stereo not drawn) [monolaurin]: the “MIC (mg/ml) S. epidermidis (chitosan prep. mixture at pH 5 or at pH 7)” value in the experiment with S. epidermidis (setting [2]) is 10 mg/ml. As for `CCCCCCCC(=O)O` [octanoic acid, reference compound], the MIC in the experiment with S. epidermidis (setting [3]) is 10 mg/mL; with S. epidermidis (lecithin/chitosan particle composition, prep. mixture pH 5 or pH 7, maximum concentration tested 10 mg/ml, read-out: MIC (mg/ml) for S. epidermidis (chitosan prep. mixture was at pH 5 or at pH 7)) it was 10 mg/mL. For the same molecule, the “MIC (mg/ml) for E. coli (chitosan prep. mixture was at pH 5 or at pH 7)” value in the experiment on E. coli (lecithin/chitosan particle composition, prep. mixture pH 5 or pH 7, maximum concentration tested 10 mg/ml) is “— (no inhibitory activity)”. In the experiment with E. coli (particulated compositions manipulated to impart positivity (glycol chitosan at neutral pH, or prepared at pH 9)), the “Inhibitory activity against representative Gram-negative bacteria” value is “not found to exhibit inhibitory activity”. Consider `CCCCCCCCCCCC(=O)OCCCCC` [pentyl laurate], for which the MIC in the experiment on S. epidermidis (setting [3]) amounted to 10 mg/mL.
